Source: ChEMBL document CHEMBL6127154, “Pursuing Polypharmacology: Benzothiopyranoindoles as G-Quadruplex Stabilizers and Topoisomerase I Inhibitors for Effective Anticancer Strategies” (ACS Med Chem Lett, 2024)
Active and inactive are the calls of the source. No cut-off for these calls is given here.

How the values were obtained:
MDA-MB-435 = test: Antiproliferative activity against human MDA-MB-435 cells assessed as growth inhibition incubated for 48 hrs by SRB assay; assay type: functional
SK-MEL-28 = test: Antiproliferative activity against human SK-MEL-28 cells assessed as growth inhibition incubated for 48 hrs by SRB assay; assay type: functional
KM12 = test: Antiproliferative activity against human KM12 cells assessed as growth inhibition incubated for 48 hrs by SRB assay; assay type: functional
[1] = biological target: DNA topoisomerase 1 (Homo sapiens) (UniProt P11387); test: Inhibition of human Topoisomerase 1 assessed as relaxation of supercoiled plasmid pBR322 DNA at 2.5 uM incubated for 1 hr by ethidium bromide staining based agarose gel electrophoresis
SR = test: Antiproliferative activity against human SR cells assessed as growth inhibition incubated for 48 hrs by SRB assay; assay type: functional
Quadruplex DNA [2] = test: Thermal stabilization of human Tel26-hy G4 quadruplex DNA assessed as change in melting temperature (deltaT1/2) incubated for 10 mins by circular dichroism spectroscopic analysis (reference value: 55.4 +/- 0.1 degreeC); assay type: nucleic-acid assay
T47D = test: Antiproliferative activity against human T47D cells assessed as growth inhibition incubated for 48 hrs by SRB assay; assay type: functional
Quadruplex DNA [3] = test: Stabilization of human telomeric 23 hybrid G4 quadruplex DNA incubated for 10 mins by circular dichroism spectroscopic analysis; assay type: nucleic-acid assay
HL-60 = test: Antiproliferative activity against human HL-60 cells assessed as growth inhibition incubated for 48 hrs by SRB assay; assay type: functional
U-251 = test: Antiproliferative activity against human U-251 cells assessed as growth inhibition incubated for 48 hrs by SRB assay; assay type: functional
Quadruplex DNA [4] = test: Stabilization of human telomeric 26 hybrid G4 quadruplex DNA incubated for 10 mins by circular dichroism spectroscopic analysis; assay type: nucleic-acid assay
RXF 393 = test: Antiproliferative activity against human RXF 393 cells assessed as growth inhibition incubated for 48 hrs by SRB assay; assay type: functional
PC-3 = test: Antiproliferative activity against human PC-3 cells assessed as growth inhibition incubated for 48 hrs by SRB assay; assay type: functional
MCF7 = test: Antiproliferative activity against human MCF7 cells assessed as growth inhibition incubated for 48 hrs by SRB assay; assay type: functional
IGROV-1 = test: Antiproliferative activity against human IGROV-1 cells assessed as growth inhibition incubated for 48 hrs by SRB assay; assay type: functional
MOLT-4 = test: Antiproliferative activity against human MOLT-4 cells assessed as growth inhibition incubated for 48 hrs by SRB assay; assay type: functional
NCI-H322M = test: Antiproliferative activity against human NCI-H322M cells assessed as growth inhibition incubated for 48 hrs by SRB assay; assay type: functional
UACC-257 = test: Antiproliferative activity against human UACC-257 cells assessed as growth inhibition incubated for 48 hrs by SRB assay; assay type: functional
NCI-H226 = test: Antiproliferative activity against human NCI-H226 cells assessed as growth inhibition incubated for 48 hrs by SRB assay; assay type: functional
Homo sapiens = organism: Homo sapiens; test: Inhibition of human Topoisomerase II assessed as relaxation of supercoiled plasmid pBR322 DNA at 2.5 uM incubated for 1 hr by ethidium bromide staining based agarose gel electrophoresis
Hs-578T = test: Antiproliferative activity against human Hs-578T cells assessed as growth inhibition incubated for 48 hrs by SRB assay; assay type: functional
SF-295 = test: Antiproliferative activity against human SF-295 cells assessed as growth inhibition incubated for 48 hrs by SRB assay; assay type: functional
SF-268 = test: Antiproliferative activity against human SF-268 cells assessed as growth inhibition incubated for 48 hrs by SRB assay; assay type: functional
HCT-116 = test: Induction of DNA damage in human HCT-116 cells assessed as increase in gammaH2AX level incubated for 24 hrs by immunofluorescence staining based analysis; assay type: functional, cell-based
M14 = test: Antiproliferative activity against human M14 cells assessed as growth inhibition incubated for 48 hrs by SRB assay; assay type: functional
MDA-MB-231 = test: Antiproliferative activity against human MDA-MB-231 cells assessed as growth inhibition incubated for 48 hrs by SRB assay; assay type: functional
CAKI-1 = test: Antiproliferative activity against human CAKI-1 cells assessed as growth inhibition incubated for 48 hrs by SRB assay; assay type: functional
SK-MEL-2 = test: Antiproliferative activity against human SK-MEL-2 cells assessed as growth inhibition incubated for 48 hrs by SRB assay; assay type: functional
SNB-19 = test: Antiproliferative activity against human SNB-19 cells assessed as growth inhibition incubated for 48 hrs by SRB assay; assay type: functional
OVCAR-8 = test: Antiproliferative activity against human OVCAR-8 cells assessed as growth inhibition incubated for 48 hrs by SRB assay; assay type: functional
SF-539 = test: Antiproliferative activity against human SF-539 cells assessed as growth inhibition incubated for 48 hrs by SRB assay; assay type: functional
Quadruplex DNA [5] = test: Thermal stabilization of human c-Myc G4 quadruplex DNA assessed as change in melting temperature (deltaT1/2) incubated for 10 mins by circular dichroism spectroscopic analysis (reference value: 70.5 +/- 0.1 degreeC); assay type: nucleic-acid assay
OVCAR-4 = test: Antiproliferative activity against human OVCAR-4 cells assessed as growth inhibition incubated for 48 hrs by SRB assay; assay type: functional
HCC 2998 = test: Antiproliferative activity against human HCC 2998 cells assessed as growth inhibition incubated for 48 hrs by SRB assay; assay type: functional
ACHN = test: Antiproliferative activity against human ACHN cells assessed as growth inhibition incubated for 48 hrs by SRB assay; assay type: functional
NCI-H23 = test: Antiproliferative activity against human NCI-H23 cells assessed as growth inhibition incubated for 48 hrs by SRB assay; assay type: functional
RPMI-8226 = test: Antiproliferative activity against human RPMI-8226 cells assessed as growth inhibition incubated for 48 hrs by SRB assay; assay type: functional
Malme-3M = test: Antiproliferative activity against human Malme-3M cells assessed as growth inhibition incubated for 48 hrs by SRB assay; assay type: functional
NCI-H460 = test: Antiproliferative activity against human NCI-H460 cells assessed as growth inhibition incubated for 48 hrs by SRB assay; assay type: functional
HOP-62 = test: Antiproliferative activity against human HOP-62 cells assessed as growth inhibition incubated for 48 hrs by SRB assay; assay type: functional
SW-620 = test: Antiproliferative activity against human SW620 cells assessed as growth inhibition incubated for 48 hrs by SRB assay; assay type: functional
Quadruplex DNA [6] = test: Thermal stabilization of human Tel23-p G4 quadruplex DNA assessed as change in melting temperature (deltaT1/2) incubated for 10 mins by circular dichroism spectroscopic analysis (reference value: 68.2 +/- 0.1 degreeC); assay type: nucleic-acid assay
BT-549 = test: Antiproliferative activity against human BT-549 cells assessed as growth inhibition incubated for 48 hrs by SRB assay; assay type: functional
Quadruplex DNA [7] = test: Thermal stabilization of human c-Kit2 G4 quadruplex DNA assessed as change in melting temperature (deltaT1/2) incubated for 10 mins by circular dichroism spectroscopic analysis (reference value: 62.4 +/-0.1 degreeC); assay type: nucleic-acid assay
OVCAR-3 = test: Antiproliferative activity against human OVCAR-3 cells assessed as growth inhibition incubated for 48 hrs by SRB assay; assay type: functional

Sequence of DNA topoisomerase 1 (Homo sapiens) (P11387 whole entry): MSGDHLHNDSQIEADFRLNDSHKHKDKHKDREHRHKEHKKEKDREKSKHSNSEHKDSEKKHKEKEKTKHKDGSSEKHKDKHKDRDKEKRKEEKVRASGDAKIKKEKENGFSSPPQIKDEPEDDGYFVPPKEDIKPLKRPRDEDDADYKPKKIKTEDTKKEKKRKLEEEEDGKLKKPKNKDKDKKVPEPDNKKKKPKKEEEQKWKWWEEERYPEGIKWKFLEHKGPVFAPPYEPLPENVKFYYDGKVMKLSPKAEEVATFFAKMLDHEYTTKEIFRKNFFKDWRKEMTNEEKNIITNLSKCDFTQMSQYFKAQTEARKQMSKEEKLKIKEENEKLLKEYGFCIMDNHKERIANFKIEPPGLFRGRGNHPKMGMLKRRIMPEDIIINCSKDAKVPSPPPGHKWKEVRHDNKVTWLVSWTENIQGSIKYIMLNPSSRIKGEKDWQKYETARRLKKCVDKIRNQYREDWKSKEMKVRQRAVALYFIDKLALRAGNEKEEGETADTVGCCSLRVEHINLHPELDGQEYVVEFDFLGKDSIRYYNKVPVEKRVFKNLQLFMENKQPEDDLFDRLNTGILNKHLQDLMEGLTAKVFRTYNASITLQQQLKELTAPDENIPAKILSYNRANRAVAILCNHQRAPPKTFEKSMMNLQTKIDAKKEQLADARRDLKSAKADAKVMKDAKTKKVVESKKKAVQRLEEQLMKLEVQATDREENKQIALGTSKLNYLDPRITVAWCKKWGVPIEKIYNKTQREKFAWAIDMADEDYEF

Molecule `CCN(CC)CCn1c2ccc(O)cc2c2sc3cc(OC)ccc3c(=O)c21` has a GI (MDA-MB-435) of 1.64 µM, a GI (SK-MEL-28) of 1.8 µM and a GI (KM12) of 1.84 µM. The inhibition [1] was “Active”, the GI (SR) was 1.11 µM and the ΔTm (Quadruplex DNA [2]) was 7.5 °C. The GI (T47D) was 14.2 µM, the Activity (Quadruplex DNA [3]) was “Active” and the GI (HL-60) was 1.72 µM. For the same molecule, the GI (U-251) was 1.58 µM, the Activity (Quadruplex DNA [4]) was “Active” and the GI (RXF 393) was 1.31 µM. The GI (PC-3) was 1.82 µM, the GI (MCF7) was 1.18 µM and the GI (IGROV-1) was 1.59 µM. For the same molecule, the GI (MOLT-4) was 0.389 µM, the GI (NCI-H322M) was 6.89 µM and the GI (UACC-257) was 2.1 µM. The GI (NCI-H226) was 10.4 µM, the inhibition (Homo sapiens) was “Active” and the GI (Hs-578T) was 1.95 µM. The GI (SF-295) was 5.35 µM, the GI (SF-268) was 7.34 µM and the Activity (HCT-116) was “Active”. The GI (M14) was 1.64 µM, the GI (MDA-MB-231) was 1.61 µM and the GI (CAKI-1) was 3.73 µM. The GI (SK-MEL-2) was 9.15 µM, the GI (SNB-19) was 1.51 µM and the GI (OVCAR-8) was 2.1 µM. The GI (SF-539) was 1.76 µM, the ΔTm (Quadruplex DNA [5]) was over 20 °C and the GI (OVCAR-4) was 1.81 µM. For the same molecule, the GI (HCC 2998) was 1.47 µM, the GI (ACHN) was 1.13 µM and the GI (NCI-H23) was 1.56 µM. For the same molecule, the GI (RPMI-8226) was 1.95 µM, the GI (Malme-3M) was 1.87 µM and the GI (NCI-H460) was 1.22 µM. It also gave a GI (HOP-62) of 6.03 µM, a GI (SW-620) of 0.675 µM and a ΔTm (Quadruplex DNA [6]) of over 20 °C. The GI (BT-549) was 6.08 µM, the ΔTm (Quadruplex DNA [7]) was over 20 °C and the GI (OVCAR-3) was 2.19 µM.

`CCN(CC)CCn1c2ccc(OC)cc2c2sc3cc(OC)ccc3c(=O)c21` showed a GI (MDA-MB-435) of 1.73 µM, a GI (SK-MEL-28) of 1.7 µM and a GI (KM12) of 2 µM. The inhibition [1] was “Active”, the GI (SR) was 0.704 µM and the ΔTm (Quadruplex DNA [2]) was 10.4 °C. The GI (T47D) was 2 µM, the Activity (Quadruplex DNA [3]) was “Active” and the GI (HL-60) was 1.77 µM. The GI (U-251) was 1.55 µM, the Activity (Quadruplex DNA [4]) was “Active” and the GI (RXF 393) was 1.4 µM. The GI (PC-3) was 1.34 µM, the GI (MCF7) was 1.16 µM and the GI (IGROV-1) was 1.53 µM. It also gave a GI (MOLT-4) of 0.383 µM, a GI (NCI-H322M) of 1.59 µM and a GI (UACC-257) of 1.92 µM. For the same molecule, the GI (NCI-H226) was 2.46 µM, the inhibition (Homo sapiens) was “Active” and the GI (Hs-578T) was 1.96 µM. The GI (SF-295) was 1.82 µM, the GI (SF-268) was 1.87 µM and the Activity (HCT-116) was “Active”. The GI (M14) was 1.64 µM, the GI (MDA-MB-231) was 1.54 µM and the GI (CAKI-1) was 1.65 µM. The GI (SK-MEL-2) was 2.1 µM, the GI (SNB-19) was 2.43 µM and the GI (OVCAR-8) was 1.93 µM. For the same molecule, the GI (SF-539) was 1.66 µM, the ΔTm (Quadruplex DNA [5]) was over 20 °C and the GI (OVCAR-4) was 1.84 µM. The GI (HCC 2998) was 1.48 µM, the GI (ACHN) was 1 µM and the GI (NCI-H23) was 1.9 µM. It also gave a GI (RPMI-8226) of 1.47 µM, a GI (Malme-3M) of 1.59 µM and a GI (NCI-H460) of 1.08 µM. The GI (HOP-62) was 2.32 µM, the GI (SW-620) was 0.825 µM and the ΔTm (Quadruplex DNA [6]) was over 20 °C. The GI (BT-549) was 2.24 µM, the ΔTm (Quadruplex DNA [7]) was over 20 °C and the GI (OVCAR-3) was 2.12 µM.
